Earlier results, collected in patent US12201712B2, “Method for dyeing keratinous material, comprising the use of an organosilicon compound, a phosphoric acid ester and a dyeing compound” (Henkel AG & Co. KGaA, priority 2020, dated 2025).

Compound	solubility in water (25° C.)	also measured
O=C(O)C1=NN(c2ccc(S(=O)(=O)O)cc2)C(=O)C1N=Nc1ccc(S(=O)(=O)O)cc1 (stereo not shown) [Acid Yellow 23, 4,5-dihydro-5-oxo-1-(4-sulfophenyl)-4-((4-sulfophenyl)azo)-1H-pyrazole-3-carboxylic acid]		solubility in water (in words) (at 25° C.): readily soluble in water
O=S(=O)(O)c1ccc(N=Nc2c(O)ccc3ccccc23)cc1 [Acid Orange 7, 4-[(2-hydroxy-1-naphthyl)azo]benzene sulphonate]	more than 7 g/L	
CCN(Cc1cccc(S(=O)(=O)O)c1)c1ccc(C(=C2C=CC(=[N+](CC)Cc3cccc(S(=O)(=O)O)c3)C=C2)c2ccccc2S(=O)(=O)[O-])cc1 [Acid Blue 9]		water solubility (25° C.): greater than 20 wt. %
O=[N+]([O-])c1cc([N+](=O)[O-])c2ccc(S(=O)(=O)O)cc2c1O [Acid Yellow 9, 8-hydroxy-5,7-dinitro-2-naphthalenesulfonic acid]	above 40 g/L	
